Test results from PubChem BioAssay (NCI).
Where “and” joins values, the source holds several entries; their conditions need not be identical. Equal entries are not always repeated.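 Following 48 hours of exposure in 96-well plates, responses at five concentrations were used to interpolate endpoints linearly. GI50 = concentration required for 50% inhibition of growth. TGI is the concentration that stops growth completely.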

Legend:
Experiment in all cases: inhibition of tumour cell growth, NCI panel, 48 h
[1] = tested on: SF-295 CNS
[2] = tested on: OVCAR-5 ovarian
[3] = tested on: BT-549 breast
[4] = tested on: A549 NSCLC
[5] = tested on: CCRF-CEM leukemia
[6] = tested on: K-562 leukemia
[7] = tested on: NCI/ADR-RES ovarian
[8] = tested on: SK-MEL-28 melanoma
[9] = tested on: UACC-62 melanoma
[10] = tested on: HCT-116 colon

Row | Structure (SMILES) | GI50 [1] [µM] | TGI [1] [µM] | GI50 [2] [µM] | TGI [2] [µM] | GI50 [3] [µM] | TGI [3] [µM] | GI50 [4] [µM] | TGI [4] [µM] | GI50 [5] [µM] | TGI [5] [µM] | GI50 [6] [µM] | TGI [6] [µM] | GI50 [7] | TGI [7] | GI50 [8] [µM] | TGI [8] [µM] | GI50 [9] [µM] | TGI [9] [µM] | GI50 [10] [µM] | TGI [10] [µM]
1 | COc1ccc(Nn2c(SCC(=O)Nc3nc(-c4ccc(Cl)cc4)cs3)nc(C)c2C)cc1 | 2.18 | > 100 | > 100 | > 100 | 6.46 | 82 | 3.32 | > 100 | 3.82 | > 100 | 1.58 | > 100 | 2.89 µM | > 100 µM | 18 | > 100 | 3.62 | > 100 | 2.12 | 14.1
2 | C=C1C[C@](OC)([C@H](O)C(=O)N[C@@H](OC)[C@@H]2C[C@@H](O)C(C)(C)[C@@H](C[C@@H](COC)OC)O2)O[C@H](C)[C@@H]1C | 0.000353 | 0.00181 | 0.00182 | 0.00689 | 0.00118 | 0.00326 | 0.00129 | 0.00558 | 0.0168 | 0.361 | – | – | 0.0141 µM and 0.0297 µM | 0.142 µM and 0.314 µM | 0.00129 | 0.00383 | 0.00153 | 0.00524 | 0.00168 | 0.0104
3 | CCNCC(=O)O[C@]1(CC)C(=O)OCc2c1cc1n(c2=O)Cc2cc3ccccc3nc2-1 | – | 4.66 | – | 13.2 | – | 26.7 | – | 13.5 | – | 0.418 | – | > 100 | – | 1.39 µM | – | > 55.5 | – | 0.677 | – | 3.29
4 | CC(C)CCOc1ccc(-c2n[nH]c(C(F)(F)F)c2-c2cncc(C#N)c2)c(O)c1 | 2.33 | 6.7 | 3.21 | > 100 | 2.57 | 9.51 | 2.24 | 12 | – | – | 1.87 | > 100 | 2.2 µM | 7.35 µM | 2.17 | > 100 | 1.22 | 5.38 | 2.61 | 10.5
5 | COc1ccc(-c2ccc(/C=N/n3c(COc4ccccc4Cl)nn(CN4CCN(C)CC4)c3=S)o2)c([N+](=O)[O-])c1 | – | – | 21.6 | 46.6 | 17.2 | 43 | 14.1 | 36.7 | 21.7 | > 100 | – | – | 18.5 µM | 41.6 µM | 24.5 | 69.4 | 19.2 | 44.9 | 16.1 | 29.8
6 | CC(=O)N1CC(Nc2ccc(OC(F)(F)F)cc2)=CC1=O | 2.86 | > 100 | > 100 | > 100 | 4.16 | > 100 | 2.01 | > 100 | 2.52 | > 100 | 0.526 | > 100 | 0.781 µM | 5.15 µM | 7.29 | > 100 | 0.821 | > 100 | 0.472 | 23.3
7 | CCn1c2c(n(CC)c1=S)-c1c(n(CC)c(=S)n1CC)SSSS2 | – | > 80.3 | – | 27.8 | – | 29.1 | – | 68.4 | – | 9.42 | – | 8.97 | – | – | – | 18.7 | – | 18.6 | – | 11
8 | NC(CSC(c1ccccc1)(c1ccccc1)c1ccc(Cl)cc1)C(=O)O (configuration not stated) | 0.216 | 3.57 | 0.774 | > 63.9 | 0.324 | 15.8 | 0.468 | > 62 | 0.386 | 40 | 0.209 | > 57.6 | 0.712 µM | 7.3 µM | 2.46 | 44.3 | 0.18 | 21.6 | 0.0476 | 11.2
9 | CC(=O)c1c(C(F)(F)F)n([O-])c2ccc(Cl)cc2[n+]1=O | 2.23 | 5.92 | 2.74 | 18.6 | 1.14 | 2.65 | 2.5 | 11.6 | 0.0108 | 2.22 | 0.509 | 3.52 | 3.4 µM | > 23.1 µM | 1.97 | 6.31 | 0.916 | 3.45 | 0.662 | –
10 | CC(C)C1OC(=O)C=C1Sc1ccccc1 (configuration not stated) | – | > 100 | – | > 100 | – | > 100 | – | > 100 | – | > 100 | – | > 100 | – | – | – | > 100 | – | > 100 | – | > 100
11 | NS(=O)(=O)c1cc2c(cc1Cl)NC(Cc1ccccc1)NS2(=O)=O (configuration not stated) | – | > 100 | – | > 100 | – | > 100 | – | > 100 | – | – | – | > 100 | – | > 100 µM | – | > 100 | – | > 100 | – | > 100
12 | COC(=O)c1ccc2c(c1)nc(-c1cc3ccccc3[nH]c1=O)n2-c1cc(C(C)(C)C)[nH]n1 | 2.14 | > 50.5 | – | – | 4.88 | 66.2 | > 100 | > 100 | 0.853 | > 100 | 1.7 | > 100 | 2.97 µM | > 100 µM | – | – | – | – | 1.74 | > 100
13 | O=C1C(Br)=CC2(C=C1Br)CCN=c1c2c(O)c2nc3ccccc3c3ccnc1c23 | 5.97 | 19.3 | 7.22 | 17.6 | 5.83 | 12.2 | 6.69 | 28.4 | 0.132 | 0.612 | 1.8 | 7.9 | 2.04 µM | 29.2 µM | 0.803 | 2.49 | 3.31 | 10.7 | 0.674 | 6.15
14 | C1CCN(CCC2CCCCN2)CC1 (configuration not stated) | – | > 100 | – | > 100 | – | > 100 | – | > 100 | – | > 100 | – | > 100 | – | > 100 µM | – | > 100 | – | > 100 | – | > 100
